From patent US8481592B2, “Uses of sesquiterpene derivatives” (Kwang Dong Pharm Co., Ltd., priority 2008, dated 2013)
Marks after values point to notes of the source that are not given here.

Columns and labels:
[1] = Physical characteristics of the compounds (solubility, stability); details: easily dissolved in organic solvent having lower polarity than ethanol, but not water
[2] = Body weight gain and total visceral fat weight in mice fed high fat diet containing sesquiterpene compound; format: in vivo, mouse; details: HFD with 0.2% compound in diet, C57BL mice, 8 weeks
From the text: Obesity-inducible diet used in the present experiment was high fat diet (HFD: 40% fat calorie, 17 g Lard+3% maize oil/100 g diet) developed by the present inventors and the composition of diet containing sesquiterpene compounds was equal to that of HFD but each 8 sesquiterpene compounds with a concentration of 0.2% was included in diet [cedryl acetate-containing diet, (−)-α-cedrene-containing diet, (+)-β-cedrene-containing diet, cedrene epoxide-containing diet, methyl cedryl ether-containing diet, methyl cedryl ketone-containing diet, cedrenol-containing diet and (+)-cedrol-containing diet]. The composition of diet is described in the following Table 5.
6-old-week C57BL/63 male mice were adapted to laboratory environment during one week and divided into HFD control and 8 test groups according to randommized block design. […] Diet was supplied with water at 10-11 o'clock every morning, and intake amount of diet and body weight was measured every day and once of three days, respectively. The body weight was measure at 2 hrs after removing feed bin to block sudden change of body weight according to feed intake, and feed efficiency was calculated by dividing body weight gain by amount of total intake amount of diet during total experimental period which is from initial day supplying experimental diet to sacrificed day. After experimental animals were fasted for above 12 hrs, they were anesthetized with diethylether, and their blood, liver and visceral fat tissues (epididymal fat, perirenal fat, mesenteric fat and abdominal fat) were collected. And then, they were washed with 0.1 M phosphate-buffered saline (pH 7.4), and their weights were measured. Blood taken from abdominal aorta was centrifuged at 1,000×g for 15 min to separate plasma.

[3] = Biochemical index of blood and liver tissue in mice fed high fat diet containing sesquiterpene compound; format: in vivo, mouse
Experimental: The composition of diet is described in the following Table 5. […] After experimental animals were fasted for above 12 hrs, they were anesthetized with diethylether, and their blood, liver and visceral fat tissues (epididymal fat, perirenal fat, mesenteric fat and abdominal fat) were collected. And then, they were washed with 0.1 M phosphate-buffered saline (pH 7.4), and their weights were measured. […] Concentration of total Plasma cholesterol, triglyceride and glucose was measured twice according to commercially available measurement kit (Bio Clinical system), respectively. Insulin concentration was measured by ELISA using mouse insulin kit (Shibayaki, Japan). […] The homogenate was mixed with 5 ml of chloroform:methanol solution (2:1, v/v), and centrifuged at 1,000×g for 10 min to separate lower phase. […] Three ml of chloroform:methanol:0.05% CaCl2 solution (3:48:47, v/v/v) were added to the resulting lower phase, and thoroughly mixed for 1 min. The mixture was centrifuged at 1,000×g for 10 min. The final lower phase was completely dried on nitrogen gas, and the dried lipid was dissolved in 1 ml of methanol to use analysis of lipid component. Triglyceride concentration in lipid extracts from liver tissues was measured according to commercially available measurement kit (Bio Clinical system) equal to that used in analysis of plasma.

C. elegans = test: Anti-obesity effect (fat content by Nile red staining) in C. elegans; format: in vivo, Caenorhabditis elegans; design: key to Fat content: A low fat content was indicated by +1; a high fat content was assigned with +4; details: for Fat content: Nile red staining
Experimental: Using a dissecting microscope (×50 magnification), C. elegans at the 4th stage (L4, the imaginal stage) was transferred to 3 ml of a cholesterol-supplemented S-medium (containing NaCl, K2HPO4, KH2PO4, cholesterol, citrate, trace metals, CaCl2 and MgSO4), and 100 μl of E. coli OP50 (OD600=0.2) liquid-cultured overnight before 1 day of experiment was added thereto. The Pterocarpus indicus fraction sample was added to the liquid media containing C. elegans, followed by rotary culture in a dark room at 16° C. and 100 rpm. The water-insoluble sample was dissolved in DMSO and added to the culture media. The final concentration of DMSO was adjusted below 1%. […] 24 hours after the sample was added to C. elegans, 30 μl of a Nile red dye at a concentration of 10 μg/ml was added (final concentration of Nile red was adjusted to 100 ng/ml) to the media, followed by continuous rotary culture for 2 days.
In order to arrest the locomotory movement of C. elegan, 20 μl of 0.3% NaN3 was dropped on a slide glass to which 100 μl of C. elegans cultured in the presence of Nile red for 2 days was added. Under a fluorescence microscope, adipocytes of C. elegans emitting red fluorescence in a dark room were micrographed and compared with the control group to thereby determine the amount of fat. A low fat content was indicated by +1, whereas a high fat content was assigned with +4. Adult (L4 stage) C. elegans immediately prior to egg-laying were used in this Example. Therefore, the eggs were hatched after sample treatment and most of adult C. elegans were killed at 3 day post-treatment. A fat content was examined in C. elegans which had newly hatched and grown.

[4] = HFD with compound in diet, 8 weeks, fasted

CO[C@]1(C)CC[C@@]23C[C@@H]1C(C)(C)[C@@H]2CC[C@H]3C [methyl cedryl ether, Methyl cedryl ether]
Solubility [1]: Fat soluble | Body weight gain [2]: 9.31 ± 0.91 g/8 weeks | total visceral fat weight ([2]; epididymal, perirenal, mesenteric and abdominal fat): 50.8 ± 6.12 mg/g body weight | Liver Triglyceride ([3]; HFD with compound in diet, 8 weeks): 24.4 ± 1.37 µmol/g | IRI (insulin resistance index) [3, 4]: 0.61 ± 0.08* 10^−3 pmol insulin × mmol glucose × L^−2 | Plasma Glucose [3, 4]: 5.61 ± 0.53 mmol/L | Plasma Insulin [3, 4]: 0.67 ± 0.07 ng/mL | Plasma Total cholesterol [3, 4]: 2.01 ± 0.24 mmol/L | Plasma Triglyceride [3, 4]: 1.29 ± 0.13 mmol/L | total cholesterol concentration reduced compared to HFD ([3]; plasma, 8-week): 46% | inhibitory effect on adipogenesis (C. elegans; low concentration of 1 μg/ml): notably inhibitory effect on adipogenesis | Fat content (C. elegans; sample concentration 1 μg/ml): +1 | Fat content (C. elegans; sample concentration 10 μg/ml): +2 | Fat content (C. elegans; sample concentration 100 μg/ml): +2
